Measurements as given in patent publication US10189863B2, “5,6-dihydro-4H-benzo[b]thieno-[2,3-d]azepine derivatives” (PULMOCIDE LIMITED, priority 2014, dated 2019).
pIC50: −log10 of the molar value.

Key:
[1] = Cell viability: resazurin assay; assay type: cell-based, human; conditions: human, HEp2 cells
How it was run: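 Viability read-out: resazurin fluorescence (ex 545, em 590 nm) after 6 h, following 5-day compound incubation of HEp2 cells (37 °C, 5% CO2, 5% FBS, 0.5% DMSO final). Loss expressed as percentage of vehicle, negative if viability rose; CC50 derived from concentration-response curve where appropriate.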

[2] = tested on: RSV A2 F-protein expression in BEAS2B bronchial epithelial cells; experiment: Assessment of RSV F protein expression in BEAS2B bronchial epithelial cells; assay type: cell-based; conditions: human respiratory syncytial virus, BEAS-2B, 72 h, read-out: RSV A2 F-protein IC50 (nM)
Experimental: Assessment of RSV F Protein Expression in BEAS2B Bronchial Epithelial Cells
An early event which follows the infection of epithelial cells by RSV is the expression of RSV F-protein on the cells' surface. BEAS2B cells (SV40-immortalised human bronchial epithelial cell line) were grown in 96 well plates. Once more than 70% confluent, cells were infected with RSV A2 (#0709161v, NCPV, Public Health England, Wiltshire) at an MOI of 0.01 in clear RPMI-1640 medium (Life technologies, Paisley, UK) with 2% FBS (Life technologies, Paisley, UK), and incubated for 3 days (37° C./5% CO2).
Supernatant was aspirated and the cells were fixed with 4% formaldehyde (100 μL in PBS solution) for 20 min, washed 3 times with washing buffer (200 μL; PBS containing 0.05% Tween-20) and incubated with blocking solution (100 μL; 5% Marvel milk in PBS) for 1 hr. Cells were then washed with washing buffer (200 μL) and incubated for 1 hr at 37° C. with anti-RSV (2F7; mouse monoclonal, lot 160290, Cat. No. ab43812, Abcam plc, Cambridge, UK) F-fusion protein antibody (50 μL; prepared at a 1:1000 dilution in 5% milk/PBS-tween). After washing, cells were incubated with an HRP-conjugated anti-mouse IgG antibody (50 μL prepared at a 1:2000 dilution in 5% milk in PBS; lot 00095437, Cat.No. P0447, Dako UK Ltd, Cambridgeshire, UK) for 1 hr. Cells were washed twice with washing buffer and once with PBS. TMB substrate (100 μL; substrate reagent pack lot 320436, Cat. No. DY999, R&D Systems, Inc. Abingdon, UK) was then added and the reaction was stopped by the addition of aq sulfuric acid (50 μL; 2N). The resultant signal was determined colourimetrically (OD: 450 nm with a reference wavelength of 655 nm) in a microplate reader (Multiskan FC®, ThermoFisher Scientific). Cells were then washed and 1% crystal violet solution (50 μL; lot SLB4576, Cat. No. HT90132-1L, Sigma-Aldrich) was applied for 30 min. After washing with PBS (200 μL) 3 times, 1% SDS (100 μL) was added to each well, and plates were shaken lightly for 1 hr prior to reading the absorbance at 595 nm. The measured OD450-655 readings were corrected for cell number by dividing the OD450-655 by the OD595 readings. The percentage inhibition for each well was calculated and the IC50 value derived from the concentration-response curve generated for each test compound.

RSV B Washington strain = experiment: Assessment of RSV induced CPE in HEp2 cells (RSV B Washington strain); assay type: cell-based; conditions: human respiratory syncytial virus, HEp2 cells; for pIC50: HEp-2, 144 h, 1 MOI, 6 days, read-out: RSV B CPE IC50; for inhibition at 1 µg/mL / inhibition at 0.1 µg/mL: HEp-2; for inhibition at 1 µg/mL: Inhibition (%) at 1 μg/mL, read-out: RSV B CPE % Inhibition; for inhibition at 0.1 µg/mL: Inhibition (%) at 0.1 μg/mL
How it was run: (§1)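 HEp2 cells were infected at MOI 1 with RSV A2 or RSV B Washington, with compound added at the same time (0.5% DMSO final). Incubation was 5 days for A2 and 6 days for B, then viability was read by resazurin fluorescence (545/590 nm) after 6 h. IC50, IC75 and IC90 came from concentration-response curves.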

RSV A2 strain = experiment: Assessment of RSV induced CPE in HEp2 cells (RSV A2 strain); assay type: cell-based; conditions: human respiratory syncytial virus, HEp2 cells; for pIC50: HEp-2, 120 h, 1 MOI, 5 days, read-out: RSV A2 CPE IC50; for inhibition at 0.1 µg/mL / inhibition at 0.01 µg/mL: HEp-2; for inhibition at 0.1 µg/mL: Inhibition (%) at 0.1 μg/mL, read-out: RSV A2 CPE % Inhibition; for inhibition at 0.01 µg/mL: Inhibition (%) at 0.01 μg/mL
How it was run: as §1

O=C(Nc1c(F)cccc1Cl)c1cc2c(s1)-c1ccccc1N(C(=O)c1ccc(NC(=O)c3cccnc3N3CC4(CCOCC4)C3)cc1)CC2 [Example 26, 6-(4-(2-(7-oxa-2-azaspiro[3.5]nonan-2-yl)nicotinamido)benzoyl)-N-(2-chloro-6-fluorophenyl)-5,6-dihydro-4H-benzo[b]thieno[2,3-d]azepine-2-carboxamide]
CC50 at 5 days [1]: > 13800 nM
IC50 [2]: 0.14 nM
pIC50 (RSV B Washington strain): 8.03
inhibition at 1 µg/mL (RSV B Washington strain): 73%
pIC50 (RSV A2 strain): 9.92
inhibition at 0.1 µg/mL (RSV A2 strain): 95%

O=C(Nc1ccc(F)cc1Cl)c1cc2c(s1)-c1ccccc1N(C(=O)c1ccc(NC(=O)c3cccnc3N3CC4(CCOCC4)C3)cc1)CC2 [Example 27, 6-(4-(2-(7-oxa-2-azaspiro[3.5]nonan-2-yl)nicotinamido)benzoyl)-N-(2-chloro-4-fluorophenyl)-5,6-dihydro-4H-benzo [b]thieno[2,3-d]azepine-2-carboxamide]
CC50 at 5 days [1]: > 13800 nM
IC50 [2]: 0.51 nM
pIC50 (RSV B Washington strain): 7.43
inhibition at 1 µg/mL (RSV B Washington strain): 100%
pIC50 (RSV A2 strain): 9.77
inhibition at 0.1 µg/mL (RSV A2 strain): 100%

O=C(Nc1c(F)cccc1F)c1cc2c(s1)-c1ccccc1N(C(=O)c1ccc(NC(=O)c3cccnc3N3CC4(CCOCC4)C3)cc1F)CC2 [Example 30, 6-(4-(2-(7-oxa-2-azaspiro[3.5]nonan-2-yl)nicotinamido)-2-fluorobenzoyl)-N-(2,6-difluorophenyl)-5,6-dihydro-4H-benzo[b]thieno[2,3-d]azepine-2-carboxamide]
CC50 at 5 days [1]: > 13800 nM
IC50 [2]: 0.27 nM
pIC50 (RSV B Washington strain): 7.56
inhibition at 1 µg/mL (RSV B Washington strain): 94%
pIC50 (RSV A2 strain): 9.92
inhibition at 0.1 µg/mL (RSV A2 strain): 100%

Cc1cnc(N2CC3(CCOCC3)C2)c(C(=O)Nc2ccc(C(=O)N3CCc4cc(C(=O)Nc5ccccc5F)sc4-c4ccccc43)cc2)c1 [Example 33, N-(2-fluorophenyl)-6-(4-(5-methyl-2-(7-oxa-2-azaspiro [3.5]nonan-2-yl)nicotinamido)benzoyl)-5,6-dihydro-4H-benzo[b]thieno[2,3-d]azepine-2-carboxamide]
CC50 at 5 days [1]: > 14200 nM
IC50 [2]: 0.19 nM
pIC50 (RSV B Washington strain): 8.01
inhibition at 1 µg/mL (RSV B Washington strain): 74%
pIC50 (RSV A2 strain): > 10.85
inhibition at 0.1 µg/mL (RSV A2 strain): 100%

Cc1cnc(N2CC3(CCOCC3)C2)c(C(=O)Nc2ccc(C(=O)N3CCc4cc(C(=O)Nc5c(F)cccc5Cl)sc4-c4ccccc43)cc2)c1 [Example 39, N-(2-chloro-6-fluorophenyl)-6-(4-(5-methyl-2-(7-oxa-2-azaspiro[3.5]nonan-2-yl)nicotinamido)benzoyl)-5,6-dihydro-4H-benzo[b]thieno[2,3-d]azepine-2-carboxamide]
CC50 at 5 days [1]: > 13600 nM
IC50 [2]: 0.057 nM
pIC50 (RSV B Washington strain): 7.76
inhibition at 1 µg/mL (RSV B Washington strain): 77%
pIC50 (RSV A2 strain): > 10.85
inhibition at 0.1 µg/mL (RSV A2 strain): 100%

O=C(Nc1c(F)cccc1Cl)c1cc2c(s1)-c1ccccc1N(C(=O)c1ccc(NC(=O)c3cc(C4CC4)cnc3N3CC4(CCOCC4)C3)cc1)CC2 [Example 65, N-(2-chloro-6-fluorophenyl)-6-(4-(5-cyclopropyl-2-(7-oxa-2-azaspiro[3.5]nonan-2-yl)nicotinamido)benzoyl)-5,6-dihydro-4H-benzo[b]thieno[2,3-d]azepine-2-carboxamide]
CC50 at 5 days [1]: > 13100 nM
IC50 [2]: 0.59 nM
pIC50 (RSV B Washington strain): 8.80
inhibition at 1 µg/mL (RSV B Washington strain): 100%
pIC50 (RSV A2 strain): 9.89
inhibition at 0.01 µg/mL (RSV A2 strain): 100%

O=C(Nc1c(F)cccc1F)c1cc2c(s1)-c1ccccc1N(C(=O)c1ccc(NC(=O)c3cc4c(nc3N3CC5(CCOCC5)C3)CCC4)cc1)CC2 [Example 75, 6-(4-(2-(7-oxa-2-azaspiro[3.5]nonan-2-yl)-6,7-dihydro-5H-cyclopenta[b]pyridine-3-carboxamido)benzoyl)-N-(2,6-difluorophenyl)-5,6-dihydro-4H-benzo[b]thieno[2,3-d] azepine-2-carboxamide]
CC50 at 5 days [1]: > 13400 nM
IC50 [2]: 0.25 nM
pIC50 (RSV B Washington strain): 8.64
inhibition at 1 µg/mL (RSV B Washington strain): 100%
pIC50 (RSV A2 strain): 10.00
inhibition at 0.01 µg/mL (RSV A2 strain): 84%

O=C(Nc1c(F)cccc1Cl)c1cc2c(s1)-c1ccccc1N(C(=O)c1ccc(NC(=O)c3cc4c(nc3N3CC5(CCOCC5)C3)CCC4)cc1)CC2 [Example 76, 6-(4-(2-(7-oxa-2-azaspiro[3.5]nonan-2-yl)-6,7-dihydro-5H-cyclopenta[b]pyridine-3-carboxamido)benzoyl)-N-(2-chloro-6-fluorophenyl)-5,6-dihydro-4H-benzo[b]thieno[2,3-d] azepine-2-carboxamide]
CC50 at 5 days [1]: > 13100 nM
IC50 [2]: 0.32 nM
pIC50 (RSV B Washington strain): 8.85
inhibition at 1 µg/mL (RSV B Washington strain): 100%
pIC50 (RSV A2 strain): 9.82
inhibition at 0.01 µg/mL (RSV A2 strain): 100%

O=C(Nc1c(F)cccc1Cl)c1cc2c(s1)-c1ccccc1N(C(=O)c1ccc(NC(=O)c3cc4c(nc3N3CC5(CCOCC5)C3)CCCC4)cc1)CC2 [Example 81, 6-(4-(2-(7-oxa-2-azaspiro[3.5]nonan-2-yl)-5,6,7,8-tetra-hydroquinoline-3-carboxamido)benzoyl)-N-(2-chloro-6-fluorophenyl)-5,6-dihydro-4H-benzo[b]thieno[2,3-d]azepine-2-carboxamide]
CC50 at 5 days [1]: > 12900 nM
IC50 [2]: 0.13 nM
pIC50 (RSV B Washington strain): 7.99
inhibition at 0.1 µg/mL (RSV B Washington strain): 100%
pIC50 (RSV A2 strain): 9.74
inhibition at 0.01 µg/mL (RSV A2 strain): 77%

O=C(Nc1c(F)cccc1Cl)c1cc2c(s1)-c1ccccc1N(C(=O)c1ccc(NC(=O)c3cc4ccccc4nc3N3CC4(CCOCC4)C3)cc1)CC2 [Example 87, 6-(4-(2-(7-oxa-2-azaspiro[3.5]nonan-2-yl)quinoline-3-carboxamido)benzoyl)-N-(2-chloro-6-fluorophenyl)-5,6-di-hydro-4H-benzo[b]thieno[2,3-d]azepine-2-carboxamide]
CC50 at 5 days [1]: > 12900 nM
IC50 [2]: 0.49 nM
pIC50 (RSV B Washington strain): 7.80
inhibition at 0.1 µg/mL (RSV B Washington strain): 100%
pIC50 (RSV A2 strain): 9.27
inhibition at 0.01 µg/mL (RSV A2 strain): 94%
